Results published in ChEMBL document CHEMBL4028801, “A multifactorial approach to hepatobiliary transporter assessment enables improved therapeutic compound development” (Toxicol Sci, 2013).
Counter-ions that a name gives are not always drawn.

Legend:
[1] = target: T1, ATP-binding cassette sub-family C member 4 (Homo sapiens, UniProt O15439); assay: Inhibition of human MRP4 overexpressed in Sf9 cell membrane vesicles assessed as uptake of [3H]-estradiol-17beta-D-glucuronide in presence of ATP and GSH measured after 20 mins by membrane vesicle transport assay; format: ADME, cell-based
T1 sequence (O15439 whole entry): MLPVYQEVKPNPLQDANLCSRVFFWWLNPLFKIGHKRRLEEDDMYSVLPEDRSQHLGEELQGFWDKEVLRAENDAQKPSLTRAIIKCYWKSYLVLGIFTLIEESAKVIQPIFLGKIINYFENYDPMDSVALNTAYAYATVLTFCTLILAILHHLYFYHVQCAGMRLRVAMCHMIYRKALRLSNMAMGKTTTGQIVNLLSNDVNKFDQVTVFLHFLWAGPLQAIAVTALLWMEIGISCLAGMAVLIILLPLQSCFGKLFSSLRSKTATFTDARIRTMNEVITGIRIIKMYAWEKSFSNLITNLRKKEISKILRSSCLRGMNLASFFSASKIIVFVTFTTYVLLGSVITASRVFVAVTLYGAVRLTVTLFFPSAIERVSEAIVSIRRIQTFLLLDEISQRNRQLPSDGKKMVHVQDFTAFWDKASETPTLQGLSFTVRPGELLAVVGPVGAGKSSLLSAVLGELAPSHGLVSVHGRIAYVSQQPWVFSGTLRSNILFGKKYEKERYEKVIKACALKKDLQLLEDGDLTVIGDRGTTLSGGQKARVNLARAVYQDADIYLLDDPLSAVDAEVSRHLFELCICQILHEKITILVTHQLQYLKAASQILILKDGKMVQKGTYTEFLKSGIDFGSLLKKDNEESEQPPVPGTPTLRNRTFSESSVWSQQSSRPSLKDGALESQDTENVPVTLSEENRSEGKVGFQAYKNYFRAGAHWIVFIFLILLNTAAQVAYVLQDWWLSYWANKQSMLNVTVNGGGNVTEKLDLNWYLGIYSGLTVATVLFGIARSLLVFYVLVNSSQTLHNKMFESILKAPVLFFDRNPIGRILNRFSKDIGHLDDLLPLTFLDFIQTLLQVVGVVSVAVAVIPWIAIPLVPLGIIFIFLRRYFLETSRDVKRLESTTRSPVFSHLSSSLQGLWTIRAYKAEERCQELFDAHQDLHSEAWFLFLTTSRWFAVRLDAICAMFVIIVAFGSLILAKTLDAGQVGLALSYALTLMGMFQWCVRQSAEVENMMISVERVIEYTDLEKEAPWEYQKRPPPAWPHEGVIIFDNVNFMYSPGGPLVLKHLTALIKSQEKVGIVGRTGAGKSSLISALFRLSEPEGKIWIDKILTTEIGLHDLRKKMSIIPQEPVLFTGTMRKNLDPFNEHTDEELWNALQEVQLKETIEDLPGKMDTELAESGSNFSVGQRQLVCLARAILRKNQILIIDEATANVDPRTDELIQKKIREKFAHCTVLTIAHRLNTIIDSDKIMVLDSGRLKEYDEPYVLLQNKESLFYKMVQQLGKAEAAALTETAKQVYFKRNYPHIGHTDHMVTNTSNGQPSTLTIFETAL

Bile salt export pump = Bile salt export pump (Homo sapiens, UniProt O95342); assay: Inhibition of human BSEP overexpressed in Sf9 cell membrane vesicles assessed as uptake of [3H]-taurocholate in presence of ATP measured after 15 to 20 mins by membrane vesicle transport assay; format: ADME, cell-based
Chain of Bile salt export pump (O95342 whole entry): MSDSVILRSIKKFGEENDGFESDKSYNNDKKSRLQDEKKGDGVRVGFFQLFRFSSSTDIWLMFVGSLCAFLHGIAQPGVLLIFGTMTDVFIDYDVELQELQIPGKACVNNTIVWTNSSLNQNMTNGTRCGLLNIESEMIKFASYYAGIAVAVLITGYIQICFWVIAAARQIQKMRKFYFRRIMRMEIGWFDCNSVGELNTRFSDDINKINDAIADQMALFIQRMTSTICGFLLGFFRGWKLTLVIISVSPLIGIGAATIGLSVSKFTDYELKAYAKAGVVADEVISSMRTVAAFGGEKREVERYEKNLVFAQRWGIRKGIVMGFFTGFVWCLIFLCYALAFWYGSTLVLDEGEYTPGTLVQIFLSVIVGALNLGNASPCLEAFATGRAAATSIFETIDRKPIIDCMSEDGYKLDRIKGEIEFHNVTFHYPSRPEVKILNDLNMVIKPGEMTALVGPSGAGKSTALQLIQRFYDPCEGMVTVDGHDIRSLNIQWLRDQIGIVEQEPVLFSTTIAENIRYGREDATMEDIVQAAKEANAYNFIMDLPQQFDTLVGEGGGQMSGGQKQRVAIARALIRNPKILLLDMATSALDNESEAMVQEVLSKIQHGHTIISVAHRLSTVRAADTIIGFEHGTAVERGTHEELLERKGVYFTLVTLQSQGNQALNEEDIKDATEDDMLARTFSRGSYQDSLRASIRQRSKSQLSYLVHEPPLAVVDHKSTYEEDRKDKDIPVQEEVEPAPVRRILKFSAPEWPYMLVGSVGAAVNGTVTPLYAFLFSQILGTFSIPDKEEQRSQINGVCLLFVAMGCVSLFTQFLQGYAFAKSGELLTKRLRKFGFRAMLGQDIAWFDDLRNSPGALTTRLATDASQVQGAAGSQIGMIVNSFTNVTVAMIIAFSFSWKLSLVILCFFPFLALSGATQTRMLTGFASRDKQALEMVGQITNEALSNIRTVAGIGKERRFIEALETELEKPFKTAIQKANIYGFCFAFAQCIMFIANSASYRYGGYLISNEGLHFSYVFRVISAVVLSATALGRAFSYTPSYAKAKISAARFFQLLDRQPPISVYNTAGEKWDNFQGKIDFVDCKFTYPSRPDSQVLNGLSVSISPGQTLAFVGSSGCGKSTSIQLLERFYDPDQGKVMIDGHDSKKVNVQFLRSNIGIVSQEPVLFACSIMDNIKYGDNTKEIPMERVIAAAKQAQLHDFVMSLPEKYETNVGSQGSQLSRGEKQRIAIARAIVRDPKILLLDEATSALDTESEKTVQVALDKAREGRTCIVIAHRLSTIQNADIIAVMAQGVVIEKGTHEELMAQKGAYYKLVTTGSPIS

[2] = target: ATP-binding cassette sub-family C member 2 (Homo sapiens, UniProt Q92887); assay: Inhibition of human MRP2 overexpressed in Sf9 cell membrane vesicles assessed as uptake of [3H]-estradiol-17beta-D-glucuronide in presence of ATP and GSH measured after 20 mins by membrane vesicle transport assay
Chain of ATP-binding cassette sub-family C member 2 (Q92887 whole entry): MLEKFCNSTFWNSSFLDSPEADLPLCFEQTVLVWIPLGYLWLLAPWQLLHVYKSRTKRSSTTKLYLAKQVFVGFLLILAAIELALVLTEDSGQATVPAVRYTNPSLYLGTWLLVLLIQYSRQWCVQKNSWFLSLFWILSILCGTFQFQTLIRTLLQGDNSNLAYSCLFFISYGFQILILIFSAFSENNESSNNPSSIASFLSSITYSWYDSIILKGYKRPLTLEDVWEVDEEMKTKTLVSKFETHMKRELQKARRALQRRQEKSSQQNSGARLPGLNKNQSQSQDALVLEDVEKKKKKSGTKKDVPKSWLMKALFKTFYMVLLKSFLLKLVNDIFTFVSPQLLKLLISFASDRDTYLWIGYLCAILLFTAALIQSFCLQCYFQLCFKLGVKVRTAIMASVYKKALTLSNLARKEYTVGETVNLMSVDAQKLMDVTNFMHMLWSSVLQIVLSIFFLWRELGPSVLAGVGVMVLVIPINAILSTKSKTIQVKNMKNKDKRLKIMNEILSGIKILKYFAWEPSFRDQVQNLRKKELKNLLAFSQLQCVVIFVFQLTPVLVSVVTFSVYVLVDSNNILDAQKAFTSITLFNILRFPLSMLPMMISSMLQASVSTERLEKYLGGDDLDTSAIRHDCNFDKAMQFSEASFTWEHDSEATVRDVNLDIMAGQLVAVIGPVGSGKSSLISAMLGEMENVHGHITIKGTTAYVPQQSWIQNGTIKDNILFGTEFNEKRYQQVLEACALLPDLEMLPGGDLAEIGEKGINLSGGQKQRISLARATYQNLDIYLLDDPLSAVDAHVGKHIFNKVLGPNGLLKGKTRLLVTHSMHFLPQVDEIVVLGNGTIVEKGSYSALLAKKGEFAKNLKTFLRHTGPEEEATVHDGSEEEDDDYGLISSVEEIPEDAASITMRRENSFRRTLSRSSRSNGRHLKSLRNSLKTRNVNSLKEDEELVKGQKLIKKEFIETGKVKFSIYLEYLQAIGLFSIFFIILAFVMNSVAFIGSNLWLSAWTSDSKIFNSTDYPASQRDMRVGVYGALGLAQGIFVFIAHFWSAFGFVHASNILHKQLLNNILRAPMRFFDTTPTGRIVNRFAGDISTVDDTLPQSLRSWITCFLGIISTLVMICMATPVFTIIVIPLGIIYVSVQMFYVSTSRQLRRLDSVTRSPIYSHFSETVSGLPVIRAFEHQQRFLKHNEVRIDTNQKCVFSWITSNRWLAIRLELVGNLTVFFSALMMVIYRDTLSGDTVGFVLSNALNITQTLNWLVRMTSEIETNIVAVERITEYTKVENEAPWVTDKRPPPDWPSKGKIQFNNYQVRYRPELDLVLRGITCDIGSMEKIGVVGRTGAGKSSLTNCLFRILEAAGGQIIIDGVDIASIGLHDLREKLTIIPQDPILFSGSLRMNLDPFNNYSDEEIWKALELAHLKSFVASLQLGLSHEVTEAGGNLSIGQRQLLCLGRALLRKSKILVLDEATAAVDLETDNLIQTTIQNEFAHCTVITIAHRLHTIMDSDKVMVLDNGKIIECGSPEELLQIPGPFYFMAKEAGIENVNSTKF

[3] = target: ATP-binding cassette sub-family C member 3 (Homo sapiens, UniProt O15438); assay: Inhibition of human MRP3 overexpressed in Sf9 insect cell membrane vesicles assessed as uptake of [3H]-estradiol-17beta-D-glucuronide in presence of ATP and GSH measured after 10 mins by membrane vesicle transport assay; format: ADME, cell-based
Chain of ATP-binding cassette sub-family C member 3 (O15438 whole entry): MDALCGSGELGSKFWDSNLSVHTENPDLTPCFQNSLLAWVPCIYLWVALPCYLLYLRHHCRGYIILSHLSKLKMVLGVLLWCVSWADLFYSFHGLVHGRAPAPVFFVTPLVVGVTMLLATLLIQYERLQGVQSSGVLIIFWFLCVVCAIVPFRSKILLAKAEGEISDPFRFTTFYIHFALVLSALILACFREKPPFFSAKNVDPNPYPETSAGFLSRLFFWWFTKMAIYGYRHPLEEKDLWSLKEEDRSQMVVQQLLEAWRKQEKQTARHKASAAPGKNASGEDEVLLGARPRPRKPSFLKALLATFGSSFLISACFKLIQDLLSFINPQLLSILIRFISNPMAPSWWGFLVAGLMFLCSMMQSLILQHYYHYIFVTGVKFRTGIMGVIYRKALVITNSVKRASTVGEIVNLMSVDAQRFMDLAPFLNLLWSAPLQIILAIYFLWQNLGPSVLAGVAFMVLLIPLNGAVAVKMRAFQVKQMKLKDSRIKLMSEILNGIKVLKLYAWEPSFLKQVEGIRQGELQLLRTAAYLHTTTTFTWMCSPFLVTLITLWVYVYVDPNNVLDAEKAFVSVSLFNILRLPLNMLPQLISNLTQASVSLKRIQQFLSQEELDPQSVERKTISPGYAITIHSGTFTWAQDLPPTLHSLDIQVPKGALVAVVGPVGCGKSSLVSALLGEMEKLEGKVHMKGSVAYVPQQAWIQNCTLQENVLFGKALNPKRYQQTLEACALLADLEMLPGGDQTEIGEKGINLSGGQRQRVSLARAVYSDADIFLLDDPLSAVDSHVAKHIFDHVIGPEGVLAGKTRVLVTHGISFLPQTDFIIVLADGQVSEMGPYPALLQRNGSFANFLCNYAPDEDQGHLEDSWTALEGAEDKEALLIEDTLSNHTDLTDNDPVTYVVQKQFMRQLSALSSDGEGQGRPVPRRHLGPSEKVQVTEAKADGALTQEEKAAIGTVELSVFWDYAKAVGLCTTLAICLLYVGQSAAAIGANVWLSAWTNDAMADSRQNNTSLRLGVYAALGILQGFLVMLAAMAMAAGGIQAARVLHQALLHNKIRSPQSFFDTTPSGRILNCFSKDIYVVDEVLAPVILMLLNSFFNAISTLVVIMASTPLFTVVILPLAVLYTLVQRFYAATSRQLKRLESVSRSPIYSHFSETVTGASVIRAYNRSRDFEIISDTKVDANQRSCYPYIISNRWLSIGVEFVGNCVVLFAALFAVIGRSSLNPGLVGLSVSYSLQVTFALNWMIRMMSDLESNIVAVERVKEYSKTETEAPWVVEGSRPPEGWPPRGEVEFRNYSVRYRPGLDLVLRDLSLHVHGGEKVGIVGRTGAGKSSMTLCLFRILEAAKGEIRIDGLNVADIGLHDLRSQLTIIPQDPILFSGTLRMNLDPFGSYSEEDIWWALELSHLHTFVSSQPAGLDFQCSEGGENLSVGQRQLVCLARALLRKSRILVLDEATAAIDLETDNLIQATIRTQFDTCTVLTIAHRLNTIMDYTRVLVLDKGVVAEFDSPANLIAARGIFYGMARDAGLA

SMILES | IC50 [1] | IC50 (Bile salt export pump) | IC50 [2] | IC50 [3]
CCC(=O)O[C@]1(C(=O)SCF)[C@H](C)C[C@H]2[C@@H]3C[C@H](F)C4=CC(=O)C=C[C@]4(C)[C@@]3(F)[C@@H](O)C[C@@]21C [FLUTICASONE PROPIONATE] | > 133 µM | > 133 µM | > 133 µM | > 133 µM
CC(C)NCC(O)COc1ccc(COCCOC(C)C)cc1 (centres undefined) [BISOPROLOL FUMARATE] | > 133 µM | > 133 µM | > 133 µM | > 133 µM
CN(C)CCC(c1ccc(Cl)cc1)c1ccccn1 (centres undefined) [CHLORPHENIRAMINE] | > 133 µM | > 133 µM | > 133 µM | > 133 µM
CN(C)CCC=C1c2ccccc2CCc2ccccc21 [AMITRIPTYLINE] | > 133 µM | > 133 µM | > 133 µM | > 133 µM
CC(SC(=O)c1cccs1)C(=O)NCC(=O)O (centres undefined) [STEPRONIN] | > 133 µM | > 133 µM | > 133 µM | > 133 µM
O=C(NC1CCN(CCc2c[nH]c3ccccc23)CC1)c1ccccc1 [INDORAMIN] | > 133 µM | > 133 µM | > 133 µM | > 133 µM
C=C1[C@H](CO)[C@@H](O)C[C@@H]1n1cnc2c(=O)[nH]c(N)nc21 | > 133 µM | > 133 µM | > 133 µM | > 133 µM
CCNC(=O)[C@@H]1CCCN1C(=O)[C@H](CCCNC(=N)N)NC(=O)[C@H](CC(C)C)NC(=O)[C@@H](CC(C)C)NC(=O)[C@H](Cc1ccc(O)cc1)NC(=O)[C@H](CO)NC(=O)[C@H](Cc1c[nH]c2ccccc12)NC(=O)[C@H](Cc1c[nH]cn1)NC(=O)[C@@H]1CCC(=O)N1 [LEUPROLIDE ACETATE] | > 133 µM | > 133 µM | 80.2 µM | > 133 µM
Cn1c(=O)n(-c2ccc(C(C)(C)C#N)cc2)c2c3cc(-c4cnc5ccccc5c4)ccc3ncc21 [DACTOLISIB] | > 133 µM | 7.9 µM | > 133 µM | > 133 µM
C=CC[N+]1([C@H]2C[C@H]3[C@@H]4CC[C@H]5C[C@H](O)[C@@H](N6CCOCC6)C[C@]5(C)[C@H]4CC[C@]3(C)[C@H]2OC(C)=O)CCCC1 [ROCURONIUM BROMIDE] | > 133 µM | > 133 µM | > 133 µM | > 133 µM
c1ccc2c(c1)OCC(C1=NCCN1)O2 (centres undefined) [IDAZOXAN] | > 133 µM | > 133 µM | > 133 µM | > 133 µM
CNCCCN1c2ccccc2CCc2ccccc21 [DESIPRAMINE] | > 133 µM | > 133 µM | > 133 µM | > 133 µM
CC(=O)Oc1cccc2c1C(=O)c1c(OC(C)=O)cc(C(=O)O)cc1C2=O [DIACEREIN] | 6.4 µM | > 133 µM | > 133 µM | > 133 µM
CCN1CCC[C@H]1CNC(=O)c1cc(S(N)(=O)=O)ccc1OC [LEVOSULPIRIDE] | > 133 µM | > 133 µM | > 133 µM | > 133 µM
CN(Cc1cnc2nc(N)nc(N)c2n1)c1ccc(C(=O)N[C@@H](CCC(=O)O)C(=O)O)cc1 [METHOTREXATE] | > 133 µM | > 133 µM | > 133 µM | > 133 µM
C#C[C@]1(O)C=C[C@H]2[C@@H]3CCC4=CC(=O)CC[C@@H]4[C@H]3CC[C@@]21CC [GESTODENE] | > 133 µM | > 133 µM | > 133 µM | > 133 µM
CN1C(C(=O)Nc2ccccn2)=C(O)c2ccccc2S1(=O)=O [PIROXICAM] | > 133 µM | > 133 µM | > 133 µM | > 133 µM
Cc1ccc(-c2cc(C(F)(F)F)nn2-c2ccc(S(N)(=O)=O)cc2)cc1 [CELECOXIB] | > 133 µM | > 133 µM | > 133 µM | > 133 µM

SMILES | IC50 [1] | IC50 (Bile salt export pump) | IC50 [2] | IC50 [3]
CC(C)C[C@H](NC(=O)[C@@H](COC(C)(C)C)NC(=O)[C@H](Cc1ccc(O)cc1)NC(=O)[C@H](CO)NC(=O)[C@H](Cc1c[nH]c2ccccc12)NC(=O)[C@H](Cc1cnc[nH]1)NC(=O)[C@@H]1CCC(=O)N1)C(=O)N[C@@H](CCCNC(=N)N)C(=O)N1CCC[C@H]1C(=O)NNC(N)=O [GOSERELIN ACETATE] | > 133 µM | > 133 µM | > 133 µM | > 133 µM
CCN(CCO)CCCC(C)Nc1ccnc2cc(Cl)ccc12 (centres undefined) [HYDROXYCHLOROQUINE SULFATE] | > 133 µM | > 133 µM | > 133 µM | > 133 µM
Cc1cc(NC(=O)C2=C(O)c3ccccc3S(=O)(=O)N2C)no1 [ISOXICAM] | > 133 µM | > 133 µM | > 133 µM | > 133 µM
CN(CCCN1c2ccccc2CCc2ccccc21)CC(=O)c1ccc(Cl)cc1 [LOFEPRAMINE] | > 133 µM | > 133 µM | > 133 µM | > 133 µM
CC(C(=O)O)c1ccc2c(c1)[nH]c1ccc(Cl)cc12 (centres undefined) [CARPROFEN] | 3 µM | > 133 µM | > 133 µM | > 133 µM
CC(=O)CCCCn1c(=O)c2c(ncn2C)n(C)c1=O [PENTOXIFYLLINE] | > 133 µM | > 133 µM | > 133 µM | > 133 µM
O=P1(N(CCCl)CCCl)NCCCO1 (centres undefined) [CYCLOPHOSPHAMIDE ANHYDROUS] | > 133 µM | > 133 µM | > 133 µM | > 133 µM
CN(C/C=C/C#CC(C)(C)C)Cc1cccc2ccccc12 [TERBINAFINE HYDROCHLORIDE] | > 133 µM | > 133 µM | > 133 µM | > 133 µM
O=C(O)CCC/C=C\CC1C(O)CC(O)C1/C=C/C(O)COc1cccc(Cl)c1 (centres undefined) [CLOPROSTENOL SODIUM] | 1.9 µM | > 133 µM | > 133 µM | > 133 µM
Cc1ncc([N+](=O)[O-])n1CC(O)CCl (centres undefined) [ORNIDAZOLE] | > 133 µM | > 133 µM | > 133 µM | > 133 µM
Cc1cccn2c(=O)c(-c3nnn[nH]3)cnc12 [PEMIROLAST POTASSIUM] | > 133 µM | > 133 µM | > 133 µM | > 133 µM
CCOC(=O)c1ccc(N)cc1 [BENZOCAINE] | > 133 µM | > 133 µM | > 133 µM | > 133 µM
Cc1cc(NS(=O)(=O)c2ccc(N)cc2)no1 [SULFAMETHOXAZOLE] | > 133 µM | > 133 µM | > 133 µM | > 133 µM
COc1nc(N)nc2c1ncn2[C@@H]1O[C@H](CO)[C@@H](O)[C@@H]1O [NELARABINE] | > 133 µM | > 133 µM | > 133 µM | > 133 µM
Cc1c(C(=O)NN2CCCCC2)nn(-c2ccc(Cl)cc2Cl)c1-c1ccc(Cl)cc1 [RIMONABANT] | > 133 µM | 25 µM | > 133 µM | > 133 µM
Nc1ccn([C@@H]2O[C@H](CO)[C@@H](O)C2(F)F)c(=O)n1 [GEMCITABINE HYDROCHLORIDE] | > 133 µM | > 133 µM | > 133 µM | > 133 µM
NC(=O)c1ncn([C@@H]2O[C@H](CO)[C@@H](O)[C@H]2O)n1 [RIBAVIRIN] | > 133 µM | > 133 µM | > 133 µM | > 133 µM
C[C@H]1COc2c(N3CCN(C)CC3)c(F)cc3c(=O)c(C(=O)O)cn1c23 [LEVOFLOXACIN] | > 133 µM | > 133 µM | > 133 µM | > 133 µM
